Laboratory results as given in patent publication US20040220094A1, “Inverse agonist and agonist peptides that stimulate/inhibit hair growth” (priority 2003, published 2004).
Values belong to the molecule of their own block, whether it stands above or below them. Non-standard residues stand in square brackets, D forms with d. Residues, ends and D or L forms follow the SMILES beside them. No end group written: not given here. *: point of attachment. Hydrocinnamoyl = O=C(CCc1ccccc1)*; Nle = CCCC[C@H](N)C(=O)O

Legend:
[1] = molecular target: T1, PTH1R receptor (Homo sapiens, UniProt Q03431); assay: bone-based assays; assay type: binding; conditions: bon-based assay
T1 sequence (Q03431 27-593): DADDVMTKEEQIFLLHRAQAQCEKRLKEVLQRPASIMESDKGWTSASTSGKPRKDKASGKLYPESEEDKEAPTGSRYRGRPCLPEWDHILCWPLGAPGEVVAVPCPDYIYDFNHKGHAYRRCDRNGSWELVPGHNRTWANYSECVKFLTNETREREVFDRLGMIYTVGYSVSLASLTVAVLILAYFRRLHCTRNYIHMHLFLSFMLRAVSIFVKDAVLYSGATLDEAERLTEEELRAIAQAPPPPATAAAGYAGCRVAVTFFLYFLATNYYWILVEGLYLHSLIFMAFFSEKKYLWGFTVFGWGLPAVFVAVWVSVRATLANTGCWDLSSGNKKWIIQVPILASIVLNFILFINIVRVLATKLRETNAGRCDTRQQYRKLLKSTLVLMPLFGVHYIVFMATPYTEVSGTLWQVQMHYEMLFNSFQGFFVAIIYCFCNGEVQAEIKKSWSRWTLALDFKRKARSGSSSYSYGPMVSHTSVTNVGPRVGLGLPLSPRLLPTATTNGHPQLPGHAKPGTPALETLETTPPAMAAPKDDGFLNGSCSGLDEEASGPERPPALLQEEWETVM

[2] = molecular target: T1, PTH1R receptor; assay: kidney-based assays; assay type: binding; conditions: kidney-based assay
[3] = molecular target: T1, PTH1R receptor; assay: potency of inverse agonist peptides (assay not specified)
[4] = molecular target: T2, Type I PTH/PTHrP receptor (PTH1R receptor); assay: bone-based assay
T2 chain: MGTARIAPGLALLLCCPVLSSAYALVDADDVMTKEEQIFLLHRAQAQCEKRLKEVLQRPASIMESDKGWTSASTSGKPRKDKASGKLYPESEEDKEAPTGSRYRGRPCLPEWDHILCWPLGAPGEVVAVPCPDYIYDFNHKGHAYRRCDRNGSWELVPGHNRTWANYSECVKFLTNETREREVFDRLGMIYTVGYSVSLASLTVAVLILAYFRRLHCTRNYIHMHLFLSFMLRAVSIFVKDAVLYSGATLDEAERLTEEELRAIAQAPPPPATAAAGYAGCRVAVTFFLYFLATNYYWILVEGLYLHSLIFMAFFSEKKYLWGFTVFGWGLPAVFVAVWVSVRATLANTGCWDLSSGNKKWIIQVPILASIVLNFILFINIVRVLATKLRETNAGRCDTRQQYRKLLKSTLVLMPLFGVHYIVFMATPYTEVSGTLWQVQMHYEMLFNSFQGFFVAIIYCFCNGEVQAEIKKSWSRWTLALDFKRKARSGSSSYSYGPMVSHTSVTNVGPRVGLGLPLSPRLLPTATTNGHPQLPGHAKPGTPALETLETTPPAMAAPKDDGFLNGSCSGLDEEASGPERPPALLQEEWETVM

[5] = molecular target: T2, Type I PTH/PTHrP receptor (PTH1R …); assay: kidney-based assay

Molecule: Leu-Leu-His-Asn-Leu-Gly-Lys-Ser-Ile-Gln-Asp-Leu-Arg-Arg-Arg-Phe-Phe-Leu-His-His-Leu-Ile-Ala-Glu-Ile-His-Thr-Ala-NH2 (LLHNLGKSIQDLRRRFFLHHLIAEIHTA-NH2)
- fold more potent than PTHrP 7-34 ([3]; relative to PTHrP 7-34): (which is 23 fold more potent than PTHrP 7-34);

B1: Phe-Nle-His-Asn-Leu-Gly-Lys-(epsilon-3-phenylpropanoyl)-His-Leu-Ser-Ser-Nle-Glu-Arg-Val-Glu-Trp-Leu-Arg-Lys-Lys-Leu-Gln-Asp-Val-His-Asn-Tyr (peptide)
peptide: FXHNLGKHLSSXERVEWLRKKLQDVHNY
modifications: Nle (norleucine) at peptide positions 2 and 12 (written X in letters); Lys at peptide position 7 carries epsilon-3-phenylpropanoyl
- Ki [4]: 3.5 nM
- Ki [5]: 73 nM

Other lines, results leading:

- Ki [1]: 3.5 nM
- Kd ([1]; read-out: Kbinding): 9 nM
- Ki [2]: 73 nM
- Kd ([2]; read-out: Kbinding): 4 nM
Molecule: CCCC[C@H](NC(=O)[C@H](CO)NC(=O)[C@H](CO)NC(=O)[C@H](CC(C)C)NC(=O)[C@H](Cc1c[nH]cn1)NC(=O)[C@H](CCCCNC(=O)CCc1ccccc1)NC(=O)CNC(=O)[C@H](CC(C)C)NC(=O)[C@H](CC(N)=O)NC(=O)[C@H](Cc1c[nH]cn1)NC(=O)[C@H](CCCC)NC(=O)[C@@H](N)Cc1ccccc1)C(=O)N[C@@H](CCC(=O)O)C(=O)N[C@@H](CCCNC(=N)N)C(=O)N[C@H](C(=O)N[C@@H](CCC(=O)O)C(=O)N[C@@H](Cc1c[nH]c2ccccc12)C(=O)N[C@@H](CC(C)C)C(=O)N[C@@H](CCCNC(=N)N)C(=O)N[C@@H](CCCCN)C(=O)N[C@@H](CCCCN)C(=O)N[C@@H](CC(C)C)C(=O)N[C@@H](CCC(N)=O)C(=O)N[C@@H](CC(=O)O)C(=O)N[C@H](C(=O)N[C@@H](Cc1c[nH]cn1)C(=O)N[C@@H](CC(N)=O)C(=O)N[C@@H](Cc1ccc(O)cc1)C(=O)O)C(C)C)C(C)C (H-F[Nle]HNLGK(Hydrocinnamoyl)HLSS[Nle]ERVEWLRKKLQDVHNY-OH; N-terminus and C-terminus assumed)

- potency [3]: increased potency
Molecule: Leu-Leu-His-Asp-Leu-D-Trp-Lys(cyclization)-Ser-Ile-Gln-Asp(cyclization)-Leu-Arg-Arg-Arg-Phe-Phe-Leu-His-His-Leu-Ile-Ala-Glu-Ile-His-Thr-Ala-NH2
